Broadly, the bioavailability is dose-corrected exposure relative to a reference, in per cent. High values mean much systemic uptake, low ones little systemic uptake. The term AUC denotes the area under the concentration-time curve, a measure of exposure. High values mean high exposure, low ones low exposure. As a reminder, the Papp A→B is how fast a substance crosses the layer from the apical side. The term logD denotes the decadic logarithm of the distribution of all forms, ionised or not, between an organic phase and buffer at a given pH. High values mean a more lipophilic compound, low ones a more hydrophilic compound. As usually defined, the IC50 is the concentration that inhibits the measured activity by half. Low values mean greater potency in that assay, high ones weaker potency in that assay. A word on the clearance: it is the volume of plasma or blood freed of the substance per unit of time. A low value points to a low capacity for elimination. As usually defined, the half-life is the time in which the quantity being followed falls by half. Read a high half-life as slow loss. Broadly, the fraction unbound is the share of the substance not bound to proteins or other matrix.

Calls of active or inactive are those of the source. No cut-off for these calls is given here.

The values that follow come from ChEMBL document CHEMBL5046251, “Discovery of a Series of Pyrimidine Carboxamides as Inhibitors of Vanin-1” (J Med Chem, 2022).

In series [1] the test system is Mus musculus. As to the kind of experiment: Anti-colitis activity against DSS-induced BALB/c mouse model assessed as increase in body weight at 100 mg/kg, po administered for 5 to 14 days. The settings on record: time 5-14 day. In kind it is functional, organism-based.
Series [2] relates to Mus musculus. As to the kind of experiment: Anti-colitis activity against DSS-induced BALB/c mouse model assessed as reduction in disease activity index at 100 mg/kg, po administered for 5 to 14 days. In kind it is functional, organism-based. The settings on record: time 5-14 day.
Series [3] relates to Mus musculus. As to the kind of experiment: Anti-colitis activity against DSS-induced colitis BALB/c mouse model assessed as effect on colon length at 100 mg/kg, po measured after 14 days. Type of series: functional, organism-based. To be noted: time 14.0 day.
A short description of series [4]: Oral bioavailability in rat at 10 mg/kg measured upto 24 hrs by LC-MS/MS analysis. To be noted: in vivo. In kind it is ADME, organism-based.
For series [5], the system named is Mus musculus. As to the kind of experiment: Anti-colitis activity against DSS-induced BALB/c mouse model assessed as increase in body weight at 50 mg/kg, po, qd administered for 10 days. In kind it is functional, organism-based. The settings on record: time 10.0 day.
Series [6] can be described thus: AUC in mouse at 10 mg/kg, sc measured upto 24 hrs by LC-MS/MS analysis. Also on record: route subcutaneous, dose 10 mg/kg, time <=24. Type of series: ADME, organism-based. The settings on record: in vivo.
A short description of series [7]: Intrinsic clearance in human liver microsomes. In kind it is ADME, Microsome. In general terms: Liver microsomes are a subcellular fraction often used to study metabolism.
The nature of series [8]: Apparent permeability across apical to basolateral side in RRCK cells. The settings on record: dog, MDCK.
Series [9] in a line: Lipophilicity, log D of the compound in Octanol/buffer by shake-flask method.
The target of series [10] is T1, Pantetheinase (Mus musculus, UniProt Q9Z0K8).
T1 sequence (Q9Z0K8 whole entry): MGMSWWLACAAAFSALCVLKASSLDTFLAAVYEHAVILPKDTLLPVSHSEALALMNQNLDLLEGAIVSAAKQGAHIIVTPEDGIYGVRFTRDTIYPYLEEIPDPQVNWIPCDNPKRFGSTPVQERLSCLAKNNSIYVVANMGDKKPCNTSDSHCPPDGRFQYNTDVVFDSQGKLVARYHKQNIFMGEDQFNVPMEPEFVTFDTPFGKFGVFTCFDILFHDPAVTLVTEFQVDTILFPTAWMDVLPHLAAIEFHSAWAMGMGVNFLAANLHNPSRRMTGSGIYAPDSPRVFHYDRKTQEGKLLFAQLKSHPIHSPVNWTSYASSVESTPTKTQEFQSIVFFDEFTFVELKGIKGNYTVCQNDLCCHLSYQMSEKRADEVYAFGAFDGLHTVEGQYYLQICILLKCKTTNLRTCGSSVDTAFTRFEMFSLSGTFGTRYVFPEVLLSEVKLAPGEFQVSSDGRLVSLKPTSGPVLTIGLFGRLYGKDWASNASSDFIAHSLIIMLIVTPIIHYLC
The experiment in a line: Inhibition of mouse vanin-1.

The next series deals with T2, Biotinidase (Homo sapiens, UniProt P43251).
T2 sequence (P43251 whole entry): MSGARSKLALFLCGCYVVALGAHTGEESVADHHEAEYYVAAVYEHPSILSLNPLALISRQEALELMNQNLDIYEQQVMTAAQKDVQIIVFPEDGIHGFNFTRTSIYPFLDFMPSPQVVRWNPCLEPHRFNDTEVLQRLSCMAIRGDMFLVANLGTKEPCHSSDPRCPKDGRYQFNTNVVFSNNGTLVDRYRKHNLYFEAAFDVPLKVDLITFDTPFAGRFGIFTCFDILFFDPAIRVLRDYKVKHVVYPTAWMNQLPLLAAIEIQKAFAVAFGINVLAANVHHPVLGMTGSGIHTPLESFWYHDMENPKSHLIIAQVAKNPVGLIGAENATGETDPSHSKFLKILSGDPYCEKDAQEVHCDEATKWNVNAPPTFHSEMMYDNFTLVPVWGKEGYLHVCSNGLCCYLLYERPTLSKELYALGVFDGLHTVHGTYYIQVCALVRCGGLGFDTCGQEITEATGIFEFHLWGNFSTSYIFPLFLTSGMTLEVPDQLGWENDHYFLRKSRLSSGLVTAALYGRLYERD
The experiment in a line: Inhibition of N-terminal FLAG/His6-tagged human biotinidase expressed in COS cells using biotinyl-7-amino-4-trifluoromethylcoumarin as substrate preincubated for 10 mins followed by substrate addition and measured after 90 mins. In kind it is cell-based.

Series [11] in a line: Clearance in rat at 1 mg/kg, iv measured upto 24 hrs by LC-MS/MS analysis. In kind it is ADME, organism-based. To be noted: in vivo.
Series [12] in a line: Volume of distribution in rat at 1 mg/kg, iv measured upto 24 hrs by LC-MS/MS analysis. To be noted: in vivo. In kind it is ADME, organism-based.
Series [13] is described as follows: Intrinsic clearance in human hepatocytes assessed per million cells. In kind it is ADME, cell-based, Hepatocyte.
Series [14] can be described thus: Intrinsic clearance in rat hepatocytes assessed per million cells. In kind it is ADME, cell-based, Hepatocyte.
Series [15] in a line: Intrinsic clearance in human hepatocytes assessed per million cells by relay assay method. In kind it is ADME, cell-based, Hepatocyte.
Series [16] is described as follows: AUC in rat at 1 mg/kg, iv measured upto 24 hrs by LC-MS/MS analysis. In kind it is ADME, organism-based. Also on record: route intravenous, dose 1 mg/kg, time <=24. The settings on record: in vivo.
Series [17] is described as follows: AUC in rat at 10 mg/kg, po measured upto 24 hrs by LC-MS/MS analysis. In kind it is ADME, organism-based. Also on record: route oral, dose 10 mg/kg, time <=24. The settings on record: in vivo.
Series [18] is described as follows: Half life in rat at 1 mg/kg, iv measured upto 24 hrs by LC-MS/MS analysis. Type of series: ADME, organism-based. The settings on record: in vivo.
A short description of series [19]: Renal clearance in rat at 1 mg/kg, iv assessed glomerular filtration rate. To be noted: in vivo. Type of series: ADME, organism-based.
For series [20], the system named is Mus musculus. As to the kind of experiment: Anti-colitis activity against DSS-induced BALB/c mouse model assessed as reduction in disease activity index at 50 mg/kg, po, qd administered for 10 days. Type of series: functional, organism-based. To be noted: time 10.0 day.
Series [21] is described as follows: Unbound drug concentration in serum of DSS-induced BALB/c mouse colitis model at 50 mg/kg administered for 10 days. In kind it is ADME, organism-based. To be noted: in vivo, 240 h, time 10 day.
For series [22], the target named is T3, Pantetheinase (Homo sapiens, UniProt O95497).
T3 sequence (O95497 whole entry): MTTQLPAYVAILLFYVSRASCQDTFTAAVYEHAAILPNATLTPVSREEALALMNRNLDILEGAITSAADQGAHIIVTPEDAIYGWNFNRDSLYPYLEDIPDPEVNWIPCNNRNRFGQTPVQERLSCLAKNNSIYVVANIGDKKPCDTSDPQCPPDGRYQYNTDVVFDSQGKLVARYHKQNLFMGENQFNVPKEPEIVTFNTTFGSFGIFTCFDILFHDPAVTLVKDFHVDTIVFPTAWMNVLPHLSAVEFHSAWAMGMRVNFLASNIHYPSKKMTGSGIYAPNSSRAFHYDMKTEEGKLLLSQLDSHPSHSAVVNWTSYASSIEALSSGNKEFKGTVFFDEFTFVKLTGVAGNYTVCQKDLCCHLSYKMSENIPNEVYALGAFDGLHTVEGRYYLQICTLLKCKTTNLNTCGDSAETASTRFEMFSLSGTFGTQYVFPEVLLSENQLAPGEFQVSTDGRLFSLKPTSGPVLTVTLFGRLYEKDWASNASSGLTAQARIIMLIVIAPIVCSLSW
As to the kind of experiment: Inhibition of human plasma vanin-1 using pantetheine-7-amino-4-trifluoromethykournarin as substrate preincubated for 30 mins followed by substrate addition. Type of series: cell-free.

A short description of series [23]: Total clearance in mouse. To be noted: in vivo. In kind it is ADME, organism-based.
A short description of series [24]: Unbound clearance in mouse. Type of series: ADME, organism-based. The settings on record: in vivo.
Series [25] in a line: Apparent intrinsic clearance in human liver microsome. Type of series: ADME. The settings on record: liver microsomes, read-out: CLH.
Series [26] in a line: Apparent intrinsic clearance in mouse liver microsome. Type of series: ADME. The settings on record: liver microsomes, read-out: CLH.
Series [27] in a line: Plasma protein binding in mouse assessed as unbound fraction. Type of series: ADME, cell-free.
Series [28] is described as follows: Volume of distribution at steady state in mouse. Type of series: ADME, organism-based. To be noted: in vivo, read-out: Vdss.
Series [29] can be described thus: Half life in mouse. Type of series: ADME, organism-based. To be noted: in vivo.
Series [30] is described as follows: Oral bioavailability in mouse. In kind it is ADME, organism-based. The settings on record: in vivo.
The subject of series [31] is Mus musculus. As to the kind of experiment: Anti-colitis activity against DSS-induced BALB/c mouse model assessed as increase in body weight at 50 mg/kg, sc measured on day 8 and 9. Type of series: functional, organism-based. The settings on record: time 8-9 day.
Series [32] relates to Mus musculus. As to the kind of experiment: Anti-colitis activity against DSS-induced BALB/c mouse model assessed as reduction in disease activity index at 50 mg/kg, sc measured on day 8 and 9. Type of series: functional, organism-based. The settings on record: time 8-9 day.
Series [33] deals with Mus musculus. As to the kind of experiment: Anti-colitis activity against DSS-induced colitis BALB/c mouse model assessed as effect on colon length at 50 mg/kg, sc measured after 14 days. In kind it is functional, organism-based. To be noted: time 14.0 day.

Take `O=C(O)c1cc(/N=N/c2ccc(S(=O)(=O)Nc3ccccn3)cc2)ccc1O`: the result in the series with Mus musculus [1] and with Mus musculus [3] was Active. In the series with Mus musculus [2], the outcome was inactive.
`C[C@H](Nc1ncc(C(=O)N2CCC3(CCOCC3)C2)cn1)c1cnccn1`: in series [4], the bioavailability stood at 37%. The outcome in the series on Mus musculus [5] and in the series on Mus musculus [20] was Active. For the same compound, the figures for the exposure (AUC) at 24 h in [6], in [16] and in [17] were 6590 ng·h/mL, 616 ng·h/mL and 2250 ng·h/mL, respectively. Also, in series [7], the Intrinsic clearance is less than 8 µL/min/mg. Also, in series [8], the apparent permeability from apical to basolateral (Papp A→B) was found to be 14 ×10⁻⁶ cm/s. The logD in series [9] was 0.4. Besides, the figures for the IC50 at Pantetheinase [10] and at Biotinidase were 0.56 nM and 2800 nM, respectively. The same compound registered a clearance in series [11] of 30 mL/min/kg. In addition, the Vd in [12] is 0.98 L/kg. The values for the CLint in series [13], in [14] and in series [15] were less than 3 µL/min/1e6 cells, 6 µL/min/1e6 cells and 0.25 µL/min/1e6 cells, respectively. Further, the half-life in [18] was 48 min. Further, in series [19], the CL came out at 25%. In series [21], this compound had a Ct of 2852 nM.
In the case of `N#Cc1cccc(C(=O)c2cnc(NC3(c4cncnc4)CC3)nc2)c1`, the Intrinsic clearance in series [7] came to 14 µL/min/mg. Also, the apparent permeability from apical to basolateral (Papp A→B) in series [8] was found to be 27 ×10⁻⁶ cm/s. Also, the pH-dependent lipophilicity (logD) in [9] is 1.2. Also, the IC50 on Pantetheinase [10] amounted to 4.8 nM; on Pantetheinase [22], 12 nM; at Biotinidase it was 24000 nM. In series [23], this compound came in with a clearance of 29 mL/min/kg. The CL free in series [24] was found to be 49 mL/min/kg. Moreover, the CLint scaled in series [25] is 14 mL/min/kg; in [26], 39 mL/min/kg. For the same compound, the unbound share (fraction unbound) in [27] came out at 0.0046. Besides, the Vd in [28] is 1.1 L/kg. In series [29], the half-life was 60 min. Besides, the bioavailability in series [30] was 29%. The result in the series on Mus musculus [31], with Mus musculus [32] and in the series on Mus musculus [33] was Active.
